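Cultured in 96-well plates, cells were exposed to test compound for 48 hours across five concentrations. GI50 = concentration required for 50% inhibition of growth.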 Active and inactive are the calls of the source. Rule as the data show it: active = GI50 up to about 1.1 µM and inactive = higher.
Tests used:
Test in all cases: NCI tumour cell line growth inhibition, 48 h
786-0 = tested on: 786-0
A549 = tested on: A549
ACHN = tested on: ACHN
CAKI-1 = tested on: CAKI-1
CCRF-CEM = tested on: CCRF-CEM
COLO 205 = tested on: COLO 205
HCT-15 = tested on: HCT-15
HT-29 = tested on: HT-29
K562 = tested on: K562
LOX IMVI = tested on: LOX IMVI
NCI-H23 = tested on: NCI-H23
OVCAR-5 = tested on: OVCAR-5
SF-295 = tested on: SF-295
SK-MEL-2 = tested on: SK-MEL-2
SK-MEL-5 = tested on: SK-MEL-5
SN12C = tested on: SN12C
SNB-75 = tested on: SNB-75
UACC-62 = tested on: UACC-62
NCI/ADR-RES = tested on: NCI/ADR-RES

Compound	GI50 (786-0)	GI50 (A549)	GI50 (ACHN)	GI50 (CAKI-1)	GI50 (CCRF-CEM)	GI50 (COLO 205)	GI50 (HCT-15)	GI50 (HT-29)	GI50 (K562)	GI50 (LOX IMVI)	GI50 (NCI-H23)	GI50 (OVCAR-5)	GI50 (SF-295)	GI50 (SK-MEL-2)	GI50 (SK-MEL-5)	GI50 (SN12C)	GI50 (SNB-75)	GI50 (UACC-62)	GI50 (NCI/ADR-RES)
CC(=O)O[C@H]1[C@H](O[C@H]2CC[C@]34C[C@]35CC[C@]3(C)[C@@H]([C@@]6(C)CC[C@@H](C(C)(C)O)O6)[C@@H](O)C[C@@]3(C)[C@@H]5C[C@H](O[C@@H]3O[C@H](CO)[C@@H](O)[C@H](O)[C@H]3O)[C@H]4C2(C)C)OC[C@@H](O)[C@@H]1O	42.6 µM (inactive)	> 100 µM (inactive)	> 100 µM (inactive)	> 100 µM (inactive)	31.6 µM (inactive)	46.8 µM (inactive)	42.2 µM	85.5 µM (inactive)	45.3 µM (inactive)	44 µM (inactive)	> 100 µM (inactive)	72.6 µM (inactive)	> 100 µM (inactive)	> 100 µM (inactive)	> 100 µM (inactive)	> 100 µM (inactive)	> 100 µM (inactive)	> 100 µM (inactive)	
COc1ccc(C23c4ccc(OC)cc4CC2(c2ccc([N+](=O)[O-])cc2)Cc2cc(OC)ccc23)cc1 (stereo not given)	> 100 µM (inactive)	> 21.2 µM (inactive)	> 39.4 µM (inactive)	> 27.2 µM (inactive)	> 40.9 µM (inactive)	> 36.2 µM (inactive)	> 93.5 µM	> 23.3 µM (inactive)	> 37.6 µM (inactive)	> 21.3 µM (inactive)	> 26.4 µM (inactive)	> 25.9 µM (inactive)		> 74.1 µM (inactive)	> 21.7 µM (inactive)	> 50.6 µM (inactive)	> 83.6 µM (inactive)	> 17.1 µM (inactive)	
CC(=O)Oc1ccccc1 [ACETIC ACID PHENYL ESTER]	> 100 µM (inactive)	> 100 µM (inactive)	> 100 µM (inactive)	> 100 µM (inactive)	> 100 µM (inactive)		> 100 µM	> 100 µM (inactive)	> 100 µM (inactive)	> 100 µM (inactive)	> 100 µM (inactive)	> 100 µM (inactive)	> 100 µM (inactive)	> 100 µM (inactive)	> 100 µM (inactive)	> 100 µM (inactive)	> 100 µM (inactive)	> 100 µM (inactive)	
COc1cc([C@@H]2c3cc4c(cc3[C@@H](NCc3cccc(F)c3)C3COC(=O)[C@@H]32)OCO4)cc(OC)c1O (stereo not given in full)	2.29 µM (inactive)	1.17 µM (inactive)	1.67 µM (inactive)	6.85 µM (inactive)	1.27 µM (inactive)	12.9 µM (inactive)	3.57 µM	8.61 µM (inactive)	6.49 µM (inactive)	3.58 µM (inactive)	1.95 µM (inactive)	13.9 µM (inactive)	2.24 µM (inactive)	12.9 µM (inactive)	7.13 µM (inactive)	2.14 µM (inactive)	1.95 µM (inactive)	2.47 µM (inactive)	
COc1ccccc1/C=C1\CCC(CNc2ccc(Cl)cc2)C1=O (stereo not given)	10.5 µM (inactive)	5.16 µM (inactive)	0.59 µM (active)	2.42 µM (inactive)	1.68 µM (inactive)	2.39 µM (inactive)	1.41 µM	2.2 µM (inactive)	0.215 µM (active)	0.254 µM (active)	5.14 µM (inactive)	10.6 µM (inactive)	2.49 µM (inactive)	13.2 µM (inactive)	3.16 µM (inactive)	13.7 µM (inactive)	15 µM (inactive)	0.36 µM (active)	
CC/C(C)=C1\CCC(CN2CCOCC2)C1=O (stereo not given)	10.1 µM (inactive)	21.2 µM (inactive)	7.18 µM (inactive)	2.47 µM (inactive)	7.91 µM (inactive)		13.4 µM	15.6 µM (inactive)	7.46 µM (inactive)	16.4 µM (inactive)	13.8 µM (inactive)	17.5 µM (inactive)	> 100 µM (inactive)	17.8 µM (inactive)	28.5 µM (inactive)	8.69 µM (inactive)	25.2 µM (inactive)	17.6 µM (inactive)	
N#CC(C#N)=C/C=C(\Sc1c(Cl)c(Cl)nc(Cl)c1Cl)c1ccc(Cl)cc1	4.45 µM (inactive)	> 100 µM (inactive)	16.8 µM (inactive)	14.5 µM (inactive)	4.74 µM (inactive)	24.4 µM (inactive)	12.9 µM	18 µM (inactive)	5.93 µM (inactive)	5.56 µM (inactive)	16.2 µM (inactive)	21.5 µM (inactive)	19 µM (inactive)	32.4 µM (inactive)	13 µM (inactive)	20.8 µM (inactive)	20.1 µM (inactive)	14.3 µM (inactive)	12.8 µM (inactive)
O=C1CCC2(c3ccccc3)Nc3ncccc3N12 (stereo not given)	> 100 µM (inactive)	> 100 µM (inactive)	> 100 µM (inactive)	> 100 µM (inactive)	> 100 µM (inactive)	> 100 µM (inactive)	> 100 µM	> 100 µM (inactive)	> 100 µM (inactive)	> 100 µM (inactive)	> 100 µM (inactive)	> 100 µM (inactive)	> 100 µM (inactive)	> 100 µM (inactive)	> 100 µM (inactive)	> 100 µM (inactive)	61.9 µM (inactive)	> 100 µM (inactive)	
COc1cc(C[S+]2CCCC2)c(SC)cc1C[S+]1CCCC1	> 100 µM (inactive)	> 100 µM (inactive)	> 100 µM (inactive)	> 100 µM (inactive)	> 100 µM (inactive)	> 100 µM (inactive)	> 100 µM	> 100 µM (inactive)	> 100 µM (inactive)	> 100 µM (inactive)	> 100 µM (inactive)	> 100 µM (inactive)	> 100 µM (inactive)	> 100 µM (inactive)	> 100 µM (inactive)	> 100 µM (inactive)	47.4 µM (inactive)	> 100 µM (inactive)	
O=C(O)CCC(NC(=O)c1ccccc1)C(=O)O (stereo not given)	> 100 µM (inactive)	> 100 µM (inactive)	> 100 µM (inactive)	> 100 µM (inactive)	> 100 µM (inactive)	52.1 µM (inactive)	> 100 µM	> 100 µM (inactive)	> 100 µM (inactive)	> 100 µM (inactive)	> 100 µM (inactive)	> 100 µM (inactive)	> 100 µM (inactive)	> 100 µM (inactive)	> 100 µM (inactive)	> 100 µM (inactive)	> 100 µM (inactive)	> 100 µM (inactive)	
CCN(CC)CCCN1CCc2c([nH]c3ccccc23)C1c1cccnc1 (stereo not given)	> 100 µM (inactive)	> 100 µM (inactive)	> 100 µM (inactive)	> 100 µM (inactive)	> 100 µM (inactive)	> 100 µM (inactive)	> 100 µM	> 100 µM (inactive)	> 100 µM (inactive)	> 100 µM (inactive)	> 100 µM (inactive)	> 100 µM (inactive)	> 100 µM (inactive)	> 100 µM (inactive)	59.8 µM (inactive)	> 100 µM (inactive)	> 100 µM (inactive)	> 100 µM (inactive)	
CCCC1C(=O)C(CC)Cc2c(OC)ccc(OC)c21 (stereo not given)	> 100 µM (inactive)	> 100 µM (inactive)	> 100 µM (inactive)	> 100 µM (inactive)	> 100 µM (inactive)	> 100 µM (inactive)	> 100 µM	> 100 µM (inactive)	> 100 µM (inactive)	> 100 µM (inactive)		> 100 µM (inactive)	> 100 µM (inactive)	> 100 µM (inactive)	> 100 µM (inactive)	> 100 µM (inactive)	> 100 µM (inactive)	> 100 µM (inactive)	
COC(=O)C(CC1=C(O)Nc2ccccc2N1)/C(=N/NC(N)=O)C(=O)Nc1ccccc1C (stereo not given)	> 100 µM (inactive)	> 100 µM (inactive)	> 100 µM (inactive)	> 100 µM (inactive)	21.7 µM (inactive)	28.5 µM (inactive)	16.6 µM	66.5 µM (inactive)	97.7 µM (inactive)	17.8 µM (inactive)	> 100 µM (inactive)	> 100 µM (inactive)	> 100 µM (inactive)	> 100 µM (inactive)	93.5 µM (inactive)	> 100 µM (inactive)	> 100 µM (inactive)	> 100 µM (inactive)	
O=[N+]([O-])c1ccc(/C=C(/c2ccc([N+](=O)[O-])o2)S(=O)(=O)c2ccccc2)o1	3.17 µM (inactive)	18.7 µM (inactive)	2.84 µM (inactive)	18.5 µM (inactive)		2.13 µM (inactive)	11.6 µM	4.49 µM (inactive)	2.96 µM (inactive)		19.7 µM (inactive)	18.6 µM (inactive)	18.6 µM (inactive)	17.4 µM (inactive)	11.9 µM (inactive)		19 µM (inactive)	6.17 µM (inactive)	18 µM (inactive)
O=c1c2c(-c3ccccc3)c3ccccc3nc2cnn1-c1ccccc1	> 100 µM (inactive)	> 100 µM (inactive)	> 100 µM (inactive)	> 100 µM (inactive)	81.7 µM (inactive)	67 µM (inactive)	> 100 µM	70.3 µM (inactive)	42.3 µM (inactive)	> 100 µM (inactive)	> 100 µM (inactive)	> 100 µM (inactive)	> 100 µM (inactive)	> 100 µM (inactive)	> 100 µM (inactive)	> 100 µM (inactive)	> 100 µM (inactive)	> 100 µM (inactive)	

Source: ChEMBL document CHEMBL1201862, “PubChem BioAssay data set” (2004)
